Test results reported in patent US7521458B2, “Spiropiperidylrifamycins for the treatment of mycobacterial infections” (priority 2004, dated 2009).
Read-outs that look alike come from different tables or passages of the source.

How the values were obtained:
Type in all cases: cell-based
[1] = system: Mycobacterium tuberculosis 4 strains assayed; settings: for % Sensitivity: 4 strains; for n° (sensitive strains): of 4 strains
[2] = system: Mycobacterium tuberculosis multiresistant 17 strains assayed; settings: for % Sensitivity: 17 strains; for n° (sensitive strains): of 17 strains
[3] = system: multiresistant Mycobacterium tuberculosis; test: microbe, parasite or virus in culture; settings: for sensitivity (of strains): concentration of about 1 μg/ml, all strains of Example 34; for antimycobacterial activity compared with rifampicin and rifabutin: in vitro, in words; for MIC: Mycobacterium tuberculosis
[4] = concentration analized 0.1 μg/ml
[5] = concentration analized 0.5 μg/ml

Compound	% Sensitivity [1, 4]	n° (sensitive strains) [1, 4]	% Sensitivity [1, 5]	n° (sensitive strains) [1, 5]	% Sensitivity ([1]; concentration analized 1 μg/ml)	n° (sensitive strains) ([1]; concentration analized 1 μg/ml)	% Sensitivity [2, 4]	n° (sensitive strains) [2, 4]	% Sensitivity [2, 5]	n° (sensitive strains) [2, 5]	% Sensitivity ([2]; concentration analized 1 μg/ml)	n° (sensitive strains) ([2]; concentration analized 1 μg/ml)	sensitivity (of strains) [3]	antimycobacterial activity compared with rifampicin and rifabutin [3]	Sensitivity of strains (S/R) ([2]; concentration analized 0.2 μg/ml)	MIC [3]	Sensitivity of strains (S/R) ([1]; concentration analized 1 μg/ml)	Sensitivity of strains (S/R) ([2]; concentration analized 1 μg/ml)
4-deoxo-3,4-[(2R)-2-spiro(2,6-diphenyl-4-piperidyl)-2,5-dihydro-1H-imidazo]rifamycin S [RFA 3M]	25%	1	50%	2	100%	4	23%	4	75%	13	94%	16	about 95.2%	much superior to rifampicin and to rifabutin	–	–	–	–
4-deoxo-3,4-[(2R)-2-spiro[2,6-bis(4-fluorophenyl)-4-piperidil]-2,5-dihydro-1H-imidazo]rifamycin S [RFA 5M]	25%	1	50%	2	100%	4	17%	3	82%	14	100%	17	about 100%	much superior to rifampicin and to rifabutin	–	–	–	–
NNC(=O)c1ccncc1 [IZ, isoniazid]	–	–	–	–	–	–	–	–	–	–	–	–	–	–	R (R means resistent)	> 256 µg/mL	–	–
CO[C@H]1/C=C/O[C@@]2(C)Oc3c(C)c(O)c4c(c3C2=O)C2=NC3(CCN(CC(C)C)CC3)NC2=C(NC(=O)/C(C)=C\C=C\[C@H](C)[C@H](O)[C@@H](C)[C@@H](O)[C@@H](C)[C@H](OC(C)=O)[C@@H]1C)C4=O [RFB, rifabutin]	–	–	–	–	–	–	–	–	–	–	–	–	about 14.3%	–	–	–	–	–
CO[C@H]1/C=C/O[C@@]2(C)Oc3c(C)c(O)c4c(O)c(c(/C=N/N5CCN(C)CC5)c(O)c4c3C2=O)NC(=O)/C(C)=C\C=C\[C@H](C)[C@H](O)[C@@H](C)[C@@H](O)[C@@H](C)[C@H](OC(C)=O)[C@@H]1C [RI, rifampicin]	–	–	–	–	–	–	–	–	–	–	–	–	–	–	–	> 256 µg/mL	R (R means resistent)	R (R means resistent)
